Results published in patent US11319315B2, “Cyclohexyl acid triazole azoles as LPA antagonists” (BRISTOL-MYERS SQUIBB COMPANY, priority 2017, dated 2022).
Counter-ions that a name gives are not always drawn.

Each molecule was assayed against T1, human LPA1 (Homo sapiens, UniProt Q92633) (assay: LPA1 functional antagonist assay (LPA-induced calcium flux in CHO cells overexpressing human LPA1)). Details: inhibition of calcium flux induced by 10 nM LPA, CHO cells overexpressing human LPA1; read-out: hLPA1 IC50.
T1 construct: expressed in transfected cells; host or cells: Chinese hamster ovary (CHO) cells
Format: cell-based
Summary of the method: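 CHO cells overexpressing human LPA1, dye-loaded 30 min at 37 °C, then given compound (0.08 nM–5 μM final, 0.5% DMSO) in HBSS/20 mM HEPES/0.1% fatty-acid-free BSA for 20 min at room temperature before 10 nM LPA. IC50 as 50% inhibition of LPA-evoked calcium flux, 4-parameter logistic fit.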

T1 sequence (Q92633 whole entry): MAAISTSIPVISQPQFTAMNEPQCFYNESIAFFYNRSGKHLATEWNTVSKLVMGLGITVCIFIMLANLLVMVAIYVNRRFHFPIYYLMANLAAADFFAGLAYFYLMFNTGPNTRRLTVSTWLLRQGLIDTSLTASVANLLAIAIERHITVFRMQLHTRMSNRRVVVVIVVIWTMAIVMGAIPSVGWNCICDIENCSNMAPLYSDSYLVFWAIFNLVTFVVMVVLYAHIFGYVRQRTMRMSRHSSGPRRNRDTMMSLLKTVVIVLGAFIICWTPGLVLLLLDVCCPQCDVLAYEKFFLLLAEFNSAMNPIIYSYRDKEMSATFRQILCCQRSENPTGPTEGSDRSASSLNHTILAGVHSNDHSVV

Structure (SMILES) | IC50
Cc1nc(-c2nnn(C)c2Cn2nnc(OCC3CC3)n2)ccc1O[C@H]1CCC[C@H](C(=O)O)C1 [Example 348, (1S,3S)-3-{[6-(5-{[5-(cyclopropyl-methoxy)-2H-1,2,3,4-tetrazol-2-yl]methyl}-1-methyl-1H-1,2,3-triazol-4-yl)-2-methylpyridin-3-yl]oxy}cyclohexane-1-carboxylic acid] | 26 nM
Cc1nc(-c2nnn(C)c2Cc2noc(CC(C)C)n2)ccc1O[C@H]1CCC[C@H](C(=O)O)C1 [Example 234, (1S,3S)-3-((6-(5-((5-isobutyl-1,2,4-oxadiazol-3-yl)methyl)-1-methyl-1H-1,2,3-triazol-4-yl)-2-methylpyridin-3-yl)oxy)cyclohexane-1-carboxylic acid] | 52 nM
Cc1nc(-c2nnn(C)c2Cn2cc(CC3CC3)nn2)ccc1O[C@H]1CCC[C@H](C(=O)O)C1 [Example 265, (1S,3S)-3-((6-(5-((4-(cyclopropyl-methyl)-1H-1,2,3-triazol-1-yl)methyl)-1-methyl-1H-1,2,3-triazol-4-yl)-2-methylpyridin-3-yl)oxy)cyclohexane-1-carboxylic acid] | 40 nM
Cc1nc(-c2nnn(C)c2Cn2nc(Cc3ccccc3)oc2=N)ccc1O[C@H]1CCC[C@H](C(=O)O)C1 [Example 41, (1S,3S)-3-((6-(5-((5-Benzyl-2-imino-1,3,4-oxadiazol-3(2H)-yl)methyl)-1-methyl-1H-1,2,3-triazol-4-yl)-2-methylpyridin-3-yl)oxy)cyclohexane-1-carboxylic acid, bis TFA salt] | 221 nM
Cc1nc(-c2nnn(C)c2Cn2nnc(OCC3CCC3)n2)ccc1O[C@H]1CCC[C@H](C(=O)O)C1 [Example 332, (1S,3S)-3-{[6-(5-{[5-(cyclobutyl-methoxy)-2H-1,2,3,4-tetrazol-2-yl]methyl}-1-methyl-1H-1,2,3-triazol-4-yl)-2-methylpyridin-3-yl]oxy}cyclohexane-1-carboxylic acid] | 30 nM
Cc1nc(-c2nnn(C)c2Cn2nnnc2CC2CCC2)ccc1O[C@H]1CCC[C@H](C(=O)O)C1 [Example 356, (1S,3S)-3-{[6-(5-{[5-(cyclobutyl-methyl)-1H-1,2,3,4-tetrazol-1-yl]methyl}-1-methyl-1H-1,2,3-triazol-4-yl)-2-methylpyridin-3-yl]oxy}cyclohexane-1-carboxylic acid] | 146 nM
CCCCc1cn(Cc2c(-c3ccc(O[C@H]4CCC[C@H](C(=O)O)C4)c(C)n3)nnn2C)nn1 [Example 79, (1 S,3 S)-3-((6-(5-((4-butyl-1H-1,2,3-triazol-1-yl)methyl)-1-methyl-1H-1,2,3-triazol-4-yl)-2-methylpyridin-3-yl)oxy)cyclohexane-1-carboxylic acid] | 44 nM
Cn1nnc(-c2ccc(O[C@H]3CCC[C@H](C(=O)O)C3)c(C#N)n2)c1Cn1cc(CC2CC2)nn1 [Example 92] | 110 nM
Cc1nc(-c2nnn(C)c2COc2ncn(CC(C)C)n2)ccc1O[C@H]1CCC[C@H](C(=O)O)C1 [Example 135, (1 S,3 S)-3-((6-(5-(((1-Isobutyl-1H-1,2,4-triazol-3-yl)oxy)methyl)-1-methyl-1H-1,2,3-triazol-4-yl)-2-methylpyridin-3-yl)oxy)cyclohexane-1-carboxylic acid] | 32 nM
Cc1nc(-c2nnn(C)c2COc2noc(C3CC3)n2)ccc1O[C@H]1CCC[C@H](C(=O)O)C1 [Example 134] | 25 nM
CCCCc1nc(Cc2c(-c3ccc(O[C@H]4CCC[C@H](C(=O)O)C4)c(C)n3)nnn2C)no1 [Example 233, (1S,3S)-3-((6-(5-((5-butyl-1,2,4-oxadiazol-3-yl)methyl)-1-methyl-1H-1,2,3-triazol-4-yl)-2-methylpyridin-3-yl)oxy)cyclohexane-1-carboxylic acid] | 8 nM
CCC(C)n1cnc(OCc2c(-c3ccc(O[C@H]4CCC[C@H](C(=O)O)C4)c(C)n3)nnn2C)n1 (some centres unmarked) [Example 142] | 509 nM
Cn1nnc(-c2ccc(O[C@H]3CCC[C@H](C(=O)O)C3)cn2)c1CNc1noc(CCC2CC2)n1 [Example 286, (1S,3S)-3-((6-(5-(((5-(2-cyclopropyl-ethyl)-1,2,4-oxadiazol-3-yl)amino)methyl)-1-methyl-1H-1,2,3-triazol-4-yl)pyridin-3-yl)oxy)cyclohexane-1-carboxylic acid] | 10 nM
CCCCc1nnc(Cc2c(-c3ccc(O[C@H]4CCC[C@H](C(=O)O)C4)c(C)n3)nnn2C)o1 [Example 74] | 227 nM
Cc1nc(-c2nnn(C)c2CNc2noc(CCC3CCC3)n2)ccc1O[C@H]1CCC[C@H](C(=O)O)C1 [Example 166] | 5 nM
CCCC(C)(C)c1nc(NCc2c(-c3ccc(O[C@H]4CCC[C@H](C(=O)O)C4)c(C)n3)nnn2C)no1 [Example 197] | 42 nM
Cc1nc(-c2nnn(C)c2Cn2nnnc2C2CCC2)ccc1O[C@H]1CCC[C@H](C(=O)O)C1 [Example 354, (1S,3S)-3-[(6-{5-[(5-cyclobutyl-1H-1,2,3,4-tetrazol-1-yl)methyl]-1-methyl-1H-1,2,3-triazol-4-yl}-2-methylpyridin-3-yl)oxy]cyclo-hexane-1-carboxylic acid] | 226 nM
Cc1nc(-c2nnn(C)c2Cn2nnnc2N2CCCC2)ccc1O[C@H]1CCC[C@H](C(=O)O)C1 [Example 311, (1S,3S)-3-{[2-methyl-6-(1-methyl-5-{[5-(pyrrolidin-1-yl)-1H-1,2,3,4-tetrazol-1-yl]methyl}-1H-1,2,3-triazol-4-yl)pyridin-3-yl]oxy}cyclohexane-1-carboxylic acid] | 605 nM
CCc1nc(OCc2c(-c3ccc(O[C@H]4CCC[C@H](C(=O)O)C4)c(C)n3)nnn2C)no1 [Example 129] | 41 nM
Cc1nc(-c2nnn(C)c2Cc2nc(CC(C)C)no2)ccc1O[C@H]1CCC[C@H](C(=O)O)C1 [Example 243, (1S,3S)-3-((6-(5-((3-isobutyl-1,2,4-oxadiazol-5-yl)methyl)-1-methyl-1H-1,2,3-triazol-4-yl)-2-methylpyridin-3-yl)oxy)cyclohexane-1-carboxylic acid] | 58 nM
Cc1nc(-c2nnn(C)c2CNc2nc(-c3ccccc3)c(F)s2)ccc1O[C@H]1CCC[C@H](C(=O)O)C1 [Example 21, (1 S,3 S)-3-((6-(5-(((5-fluoro-4-phenylthiazol-2-yl)amino)methyl)-1-methyl-1H-1,2,3-triazol-4-yl)-2-methylpyridin-3-yl)oxy)cyclohexane-1-carboxylic acid] | 18 nM
Cc1nc(-c2nnn(C)c2Cn2nnc(OC(C)C)n2)ccc1O[C@H]1CCC[C@H](C(=O)O)C1 [Example 346, (1S,3S)-3-{[2-methyl-6-(1-methyl-5-{[5-(propan-2-yloxy)-2H-1,2,3,4-tetrazol-2-yl]methyl}-1H-1,2,3-triazol-4-yl)pyridin-3-yl]oxy}cyclohexane-1-carboxylic acid] | 49 nM
Cc1nc(-c2nnn(C)c2CNc2noc(C(C)(C)C)n2)ccc1O[C@H]1CCC[C@H](C(=O)O)C1 [Example 155] | 85 nM
COc1cccc(Cc2noc(Cc3c(-c4ccc(O[C@H]5CCC[C@H](C(=O)O)C5)c(C)n4)nnn3C)n2)c1 [Example 242, (1S,3S)-3-((6-(5-((3-(3-methoxy-benzyl)-1,2,4-oxadiazol-5-yl)methyl)-1-methyl-1H-1,2,3-triazol-4-yl)-2-methylpyridin-3-yl)oxy)cyclohexane-1-carboxylic acid] | 2020 nM
Cc1nc(-c2nnn(C)c2Cn2nnc(-c3cccc(F)c3)n2)ccc1O[C@H]1CCC[C@H](C(=O)O)C1 [Example 320, (1S,3S)-3-((6-(5-((5-(3-fluoro-phenyl)-2H-tetrazol-2-yl)methyl)-1-methyl-1H-1,2,3-triazol-4-yl)-2-methylpyridin-3-yl)oxy)cyclo-hexane-1-carboxylic acid] | 58 nM
Cc1nc(-c2nnn(C)c2Cn2nnc(COc3ccccc3)n2)ccc1O[C@H]1CCC[C@H](C(=O)O)C1 [Example 300, (1S,3S)-3-{[2-methyl-6-(1-methyl-5-{[5-(phenoxymethyl)-2H-1,2,3,4-tetrazol-2-yl]methyl}-1H-1,2,3-triazol-4-yl)pyridin-3-yl]oxy}cyclohexane-1-carboxylic acid] | 98 nM
Cc1nc(-c2nnn(C)c2CNc2nnc(Cc3ccccc3)o2)ccc1O[C@H]1CCC[C@H](C(=O)O)C1 [Example 50] | 96 nM
Cc1nc(-c2nnn(C)c2CNc2nnc(CC(C)C)o2)ccc1O[C@H]1CCC[C@H](C(=O)O)C1 [Example 54] | 191 nM
Cc1nc(-c2nnn(C)c2Cc2noc(CCC(C)(F)F)n2)ccc1O[C@H]1CCC[C@H](C(=O)O)C1 [Example 227, (1 S,3 S)-3-((6-(5-((5-(3,3-difluorobutyl)-1,2,4-oxadiazol-3-yl)methyl)-1-methyl-1H-1,2,3-triazol-4-yl)-2-methylpyridin-3-yl)oxy)cyclohexane-1-carboxylic acid] | 2 nM

Same assay, conditions: read-out: hLPA1 IC50

Structure (SMILES) | IC50
Cc1nc(-c2nnn(C)c2Cn2nnc(N(C)CC3CC3)n2)ccc1O[C@H]1CCC[C@H](C(=O)O)C1 [Example 408, (1S,3S)-3-({6-(5-({5-[(cyclopropylmethyl)(methyl)amino]-2H-1,2,3,4-tetrazol-2-yl}methyl)-1-methyl-1H-1,2,3-triazol-4-yl]-2-methylpyridin-3-yl}oxy)cyclohexane-1-carboxylic acid] | 339 nM
Cc1nc(-c2nnn(C)c2CN(CC2CC2)c2nnn(CC3CC3)n2)ccc1O[C@H]1CCC[C@H](C(=O)O)C1 [Example 377, (1S,3S)-3-((6-(5-(((cyclopropyl-methyl)(2-(cyclopropylmethyl)-2H-tetrazol-5-yl)amino)methyl)-1-methyl-1H-1,2,3-triazol-4-yl)-2-methylpyridin-3-yl)oxy)cyclohexane-1-carboxylic acid] | 1240 nM
CCCCN(CCCC)c1nnn(Cc2c(-c3ccc(O[C@H]4CCC[C@H](C(=O)O)C4)c(C)n3)nnn2C)n1 [Example 363, (1S,3S)-3-((6-(5-((5-(dibutylamino)-2H-tetrazol-2-yl)methyl)-1-methyl-1H-1,2,3-triazol-4-yl)-2-methyl-pyridin-3-yl)oxy)cyclohexane-1-carboxylic acid] | 229 nM
